{
  "source": "patent US8716281B2",
  "about": "“Pyrimidine compounds that inhibit anaplastic lymphoma kinase” (Amgen Inc., priority 2010, dated 2014)",
  "data": [
    {"target": "T1, wild-type human ALK cytoplasmic domain (amino acids 1058-1620) (Homo sapiens, UniProt Q9UM73)", "T1 construct": "The cytoplasmic domain (amino acids 1058-1620) of wild-type human ALK; GST (N); made in house; host or cells: SF9 insect cells", "T1 sequence (Q9UM73 1058-1620)": "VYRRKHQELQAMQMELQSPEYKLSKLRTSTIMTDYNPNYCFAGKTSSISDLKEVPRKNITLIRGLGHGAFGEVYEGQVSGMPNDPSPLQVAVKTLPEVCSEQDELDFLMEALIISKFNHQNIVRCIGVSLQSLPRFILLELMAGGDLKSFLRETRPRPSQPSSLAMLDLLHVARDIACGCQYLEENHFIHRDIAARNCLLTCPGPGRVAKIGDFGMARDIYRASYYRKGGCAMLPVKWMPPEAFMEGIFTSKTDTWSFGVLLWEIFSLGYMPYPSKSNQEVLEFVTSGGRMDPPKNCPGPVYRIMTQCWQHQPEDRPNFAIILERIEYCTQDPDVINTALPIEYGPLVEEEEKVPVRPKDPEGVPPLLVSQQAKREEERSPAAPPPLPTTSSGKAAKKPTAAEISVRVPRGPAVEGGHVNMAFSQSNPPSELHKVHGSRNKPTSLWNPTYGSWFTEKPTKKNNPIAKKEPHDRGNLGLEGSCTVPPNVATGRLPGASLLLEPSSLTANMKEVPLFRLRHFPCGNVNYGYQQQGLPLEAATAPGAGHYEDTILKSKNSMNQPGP", "experiment": "ALK Inhibition in Enzyme Assay (Lance TR-FRET)", "type": "biochemical", "conditions": "2 nM enzyme, ATP at 40 μM (Km apparent), 90 minutes, mean of three replicates; read-out: ALK IC50", "procedure,_shortened": "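TR-FRET read-out (Eu-W1024 PT66 anti-phosphotyrosine plus streptavidin-allophycocyanin, 320 nm excitation) quantified biotinylated peptide phosphorylation by the purified kinase. Reaction ran 90 minutes at room temperature before quenching with 20 mM EDTA in Tris pH 7.5 buffer with NaCl, BSA and Tween-20.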", "units": {"IC50": "nM"}, "values": [
      {"smiles": "COc1ccc(CNC(=O)[C@H]2CCCN(c3ccnc(Nc4cc(OC)c(OC)c(OC)c4)n3)C2)cc1", "note": "[Example 15, (S)-N-((4-(methyloxy)phenyl)methyl)-1-(2-((3,4,5-tris(methyloxy)phenyl)amino)-4-pyrimidinyl)-3-piperidinecarboxamide]", "IC50": "100 to 1000"},
      {"smiles": "COc1cc(Nc2nccc(N3CCC[C@H](C(=O)NCc4ccc(-c5cc(Cl)cc(Cl)c5)cc4)C3)n2)cc(OC)c1OC", "note": "[Example 120, (S)-N-((3′,5′-dichloro-4-biphenylyl)methyl)-1-(2-((3,4,5-trimethoxyphenyl)amino)-4-pyrimidinyl)-3-piperidinecarboxamide]", "IC50": "1000 to 5000"},
      {"smiles": "COc1cc(Nc2nccc(N3CCC[C@H](C(=O)NC(C#N)c4ccccc4)C3)n2)cc(OC)c1OC", "note": "(stereo partly drawn) [Example 43, (S)-N-(cyano(phenyl)methyl)-1-(2-((3,4,5-trimethoxyphenyl)amino)-4-pyrimidinyl)-3-piperidinecarboxamide]", "IC50": "100 to 1000"},
      {"smiles": "COc1cc(Nc2nccc(N3CCC[C@H](C(=O)NCc4ccc(C)cc4)C3)n2)cc(C(F)(F)F)c1", "note": "[Example 170, (3S)-1-(2-((3-methoxy-5-(trifluoromethyl)phenyl)amino)-4-pyrimidinyl)-N-(4-methylbenzyl)-3-piperidinecarboxamide]", "IC50": "100 to 1000"},
      {"smiles": "Cc1ccc(CNC(=O)[C@H]2CCCN(c3ccnc(Nc4ccc(C#N)cc4)n3)C2)cc1", "note": "[Example 166, (3S)-1-(2-((4-cyanophenyl)amino)-4-pyrimidinyl)-N-(4-methylbenzyl)-3-piperidinecarboxamide]", "IC50": "1000 to 5000"},
      {"smiles": "Cc1ccc(CNC(=O)[C@H]2CCCN(c3ccnc(Nc4ccc(F)cc4)n3)C2)cc1", "note": "[Example 179, (3S)-1-(2-((4-fluorophenyl)amino)-4-pyrimidinyl)-N-(4-methylbenzyl)-3-piperidinecarboxamide]", "IC50": "1000 to 5000"},
      {"smiles": "Cc1ccc(CNC(=O)[C@H]2CCCN(c3ccnc(Nc4cccc(-c5ccccc5)c4)n3)C2)cc1", "note": "[Example 182, (3S)-1-(2-(3-biphenylylamino)-4-pyrimidinyl)-N-(4-methylbenzyl)-3-piperidinecarboxamide]", "IC50": "100 to 1000"},
      {"smiles": "COc1cc(Nc2nccc(N3CCC[C@H](C(=O)NCc4ccc(C)cc4)C3)n2)cc2c1OCCO2", "note": "[Example 146, (3S)-1-(2-((8-methoxy-2,3-dihydro-1,4-benzodioxin-6-yl)amino)-4-pyrimidinyl)-N-(4-methylbenzyl)-3-piperidinecarboxamide]", "IC50": "100 to 1000"},
      {"smiles": "COc1cc(Nc2nccc(N3CCC[C@H](C(=O)NCc4nc(C)cs4)C3)n2)cc(OC)c1OC", "note": "[Example 59, (S)-N-((4-methyl-1,3-thiazol-2-yl)methyl)-1-(2-((3,4,5-trimethoxyphenyl)amino)-4-pyrimidinyl)-3-piperidinecarboxamide]", "IC50": "1000 to 5000"},
      {"smiles": "Cc1ccc(CNC(=O)[C@H]2CCCN(c3ccnc(Nc4ccc(C(=O)N(C)C)cc4)n3)C2)cc1", "note": "[Example 154, (3S)-1-(2-((4-(dimethylcarbamoyl)phenyl)amino)-4-pyrimidinyl)-N-(4-methylbenzyl)-3-piperidinecarboxamide]", "IC50": "1000 to 5000"},
      {"smiles": "COc1cccc([C@@H](C)NC(=O)[C@H]2CCCN(c3ccnc(Nc4cc(OC)c(OC)c(OC)c4)n3)C2)c1", "note": "[Example 48, (S)-N-((R)-1-(3-methoxyphenyl)ethyl)-1-(2-((3,4,5-trimethoxyphenyl)amino)-4-pyrimidinyl)-3-piperidinecarboxamide]", "IC50": "1000 to 5000"},
      {"smiles": "COc1cc(Nc2nccc(N3CCC[C@H](C(=O)NCc4ccc(C(C)(C)C)cc4)C3)n2)cc(OC)c1OC", "note": "[Example 70, (S)-N-(4-tert-butylbenzyl)-1-(2-((3,4,5-trimethoxyphenyl)amino)-4-pyrimidinyl)-3-piperidinecarboxamide]", "IC50": "< 50"},
      {"smiles": "COc1cc(Nc2nccc(N3CCC[C@H](C(=O)NCc4ccc(Br)cc4)C3)n2)cc(OC)c1OC", "note": "[Example 47, (S)-N-(4-bromobenzyl)-1-(2-((3,4,5-trimethoxyphenyl)amino)-4-pyrimidinyl)-3-piperidinecarboxamide]", "IC50": "50 to 100"},
      {"smiles": "COc1cc(Nc2nccc(N3CCC[C@H](C(=O)NCCc4cccc(C)c4)C3)n2)cc(OC)c1OC", "note": "[Example 89, (S)-N-(2-(3-methylphenyl)ethyl)-1-(2-((3,4,5-trimethoxyphenyl)amino)-4-pyrimidinyl)-3-piperidinecarboxamide]", "IC50": "50 to 100"},
      {"smiles": "COc1cc(Nc2nc(Cl)cc(N3CCC[C@H](C(=O)NCc4ccc(C)cc4)C3)n2)cc(OC)c1OC", "note": "[Example 12, (S)-1-(6-Chloro-2-(3,4,5-Trimethoxyphenyl-Amino)Pyrimidin-4-Yl)-N-(4-Methylbenzyl)Piperidine-3-Carboxamide]", "IC50": "> 10000"},
      {"smiles": "Cc1ccc(CNC(=O)[C@H]2CCCN(c3ccnc(Nc4ccc5[nH]ccc5c4)n3)C2)cc1", "note": "[Example 131, (3S)-1-(2-(1H-indol-5-ylamino)-4-pyrimidinyl)-N-(4-methylbenzyl)-3-piperidinecarboxamide]", "IC50": "1000 to 5000"},
      {"smiles": "COc1cc(Nc2nccc(N3CCC[C@H](C(=O)NCc4ccc(Oc5ccc(Cl)cc5)cc4)C3)n2)cc(OC)c1OC", "note": "[Example 118, (S)-N-(4-(4-chlorophenoxy)benzyl)-1-(2-((3,4,5-trimethoxyphenyl)amino)-4-pyrimidinyl)-3-piperidinecarboxamide]", "IC50": "100 to 1000"},
      {"smiles": "COc1cc(Nc2nccc(N3CCC[C@H](C(=O)NCc4ccc(NC(C)=O)cc4)C3)n2)cc(OC)c1OC", "note": "[Example 124, (S)-N-(4-(acetylamino)benzyl)-1-(2-((3,4,5-trimethoxyphenyl)amino)-4-pyrimidinyl)-3-piperidinecarboxamide]", "IC50": "1000 to 5000"},
      {"smiles": "COc1cc(Nc2nccc(N3CCC[C@H](C(=O)NC[C@@H](C)c4ccccc4)C3)n2)cc(OC)c1OC", "note": "[Example 98, (S)-N-((S)-2-phenylpropyl)-1-(2-((3,4,5-trimethoxyphenyl)amino)-4-pyrimidinyl)-3-piperidinecarboxamide]", "IC50": "100 to 1000"},
      {"smiles": "COc1ccc(NC(C)=O)cc1Nc1nccc(N2CCC[C@H](C(=O)NCc3ccc(C)cc3)C2)n1", "note": "[Example 138, (3S)-1-(2-((5-(acetylamino)-2-methoxyphenyl)amino)-4-pyrimidinyl)-N-(4-methylbenzyl)-3-piperidinecarboxamide]", "IC50": "1000 to 5000"},
      {"smiles": "COc1cc(Nc2nccc(N3CCOC(C(=O)NCc4ccc(C)cc4)C3)n2)cc(OC)c1OC", "note": "(centres unmarked) [Example 5, N-(4-Methylbenzyl)-4-(2-(3,4,5-Trimethoxy-Phenylamino)Pyrimidin-4-Yl)Morpholine-2-Carboxamide]", "IC50": "1000 to 5000"},
      {"smiles": "COc1cc(Nc2nccc(N3CCC[C@H](C(=O)NCc4ccc(N5CCOCC5)cc4)C3)n2)cc(OC)c1OC", "note": "[Example 78, (S)-N-(4-(4-morpholinyl)benzyl)-1-(2-((3,4,5-trimethoxyphcnyl)amino)-4-pyrimidinyl)-3-piperidinecarboxamide]", "IC50": "1000 to 5000"},
      {"smiles": "COc1cc(Nc2nccc(N3CCC[C@H](C(=O)NC(C)c4ccc(Br)cc4)C3)n2)cc(OC)c1OC", "note": "(stereo partly drawn) [Example 26, (S)-N-(1-(4-bromophenyl)ethyl)-1-(2-((3,4,5-trimethoxyphenyl)amino)-4-pyrimidinyl)-3-piperidinecarboxamide]", "IC50": "100 to 1000"},
      {"smiles": "COc1cc(Nc2nccc(N3CCC[C@H](C(=O)NCc4ccc(-n5cccn5)cc4)C3)n2)cc(OC)c1OC", "note": "[Example 46, (S)-N-(4-(1H-pyrazol-1-yl)benzyl)-1-(2-((3,4,5-trimethoxyphenyl)amino)-4-pyrimidinyl)-3-piperidinecarboxamide]", "IC50": "1000 to 5000"},
      {"smiles": "COc1cc(Nc2nccc(N3CCC[C@H](C(=O)NCc4ccc(-c5ccc(F)cc5)cc4)C3)n2)cc(OC)c1OC", "note": "[Example 123, (S)-N-((4′-fluoro-4-biphenylyl)methyl)-1-(2-((3,4,5-trimethoxyphenyl)amino)-4-pyrimidinyl)-3-piperidinecarboxamide]", "IC50": "100 to 1000"},
      {"smiles": "COc1cc(Nc2nccc(N3CCC[C@H](C(=O)NCCc4cccc(Br)c4)C3)n2)cc(OC)c1OC", "note": "[Example 94, (S)-N-(2-(3-bromophenyl)ethyl)-1-(2-((3,4,5-trimethoxyphenyl)amino)-4-pyrimidinyl)-3-piperidinecarboxamide]", "IC50": "< 50"},
      {"smiles": "Cc1ccc(CNC(=O)[C@H]2CCCN(c3ccnc(Nc4cccc(C(=O)c5ccccc5)c4)n3)C2)cc1", "note": "[Example 150, (3S)-N-(4-methylbenzyl)-1-(2-((3-(phenylcarbonyl)phenyl)amino)-4-pyrimidinyl)-3-piperidinecarboxamide]", "IC50": "100 to 1000"},
      {"smiles": "COc1cc(Nc2nccc(N3CCC[C@H](C(=O)NCc4ccc(Cl)c(Cl)c4)C3)n2)cc(OC)c1OC", "note": "[Example 65, (S)-N-(3,4-dichlorobenzyl)-1-(2-((3,4,5-trimethoxyphenyl)amino)-4-pyrimidinyl)-3-piperidinecarboxamide]", "IC50": "100 to 1000"},
      {"smiles": "Cc1ccc(CNC(=O)[C@H]2CCCN(c3ccnc(Nc4cccc(CC(N)=O)c4)n3)C2)cc1", "note": "[Example 184, (3S)-1-(2-((3-(2-amino-2-oxoethyl)phenyl)amino)-4-pyrimidinyl)-N-(4-methylbenzyl)-3-piperidinecarboxamide]", "IC50": "100 to 1000"},
      {"smiles": "Cc1ccc(CNC(=O)[C@H]2CCCN(c3ccnc(Nc4ccc(-c5cnco5)cc4)n3)C2)cc1", "note": "[Example 189, (S)-N-(4-methylbenzyl)-1-(2-(4-(oxazol-5-yl)phenylamino)py-rimidin-4-yl)piperidine-3-carboxamide]", "IC50": "1000 to 5000"},
      {"smiles": "CSc1cccc(Nc2nccc(N3CCC[C@H](C(=O)NCc4ccc(C)cc4)C3)n2)c1", "note": "[Example 157, (3S)-N-(4-methylbenzyl)-1-(2-((3-(methylsulfanyl)phenyl)amino)-4-pyrimidinyl)-3-piperidinecarboxamide]", "IC50": "100 to 1000"},
      {"smiles": "COc1cc(Nc2nccc(N3CCC[C@@H](C(=O)NCc4ccc(F)cc4)C3)n2)cc(OC)c1OC", "note": "[Example 19, (R)-N-(4-fluorobenzyl)-1-(2-((3,4,5-trimethoxyphenyl)amino)-4-pyrimidinyl)-3-piperidinecarboxamide]", "IC50": "1000 to 5000"}
    ]}
  ]
}
